# Measurements: patent US20090036509A1, “N-(Ortho-Phenyl)-1-Methyl -3-Trifluoromethlpyrazole-4-Carboxanilides and Their Use as Fungicides” (BASF Aktiengesellschaft, priority 2004, published 2009)
# What was measured:
# Botrytis cinerea = assay: Activity against gray mold on bell pepper leaves caused by Botrytis cinerea, protective application; format: in vivo; settings: visual rating after 5 days, untreated 90%
# Method: The active compounds were prepared as a stock solution with 25 mg of active compound which was made up to 10 ml with a mixture of acetone and/or DMSO and the emulsifier Uniperol® EL (wetting agent having emulsifying and dispersing action based on ethoxylated alkyl phenols) in a volume ratio solvent/emulsifier of 99 to 1. The solution was then made up to 100 ml with water. This stock solution was diluted to the active compound concentrations stated below using the solvent/emulsifier/water mixture described. Activity Against Gray Mold on Bell Pepper Leaves Caused by Botrytis Cinerea Protective Application Bell pepper seedlings of the cultivar “Neusiedler Ideal Elite” were, after 2-3 leaves were well developed, sprayed to runoff point with an aqueous suspension having the concentration of active compounds stated below. The next day, the treated plants were inoculated with a spore suspension of Botrytis cinerea which contained 1.7×10^6 spores/ml in a 2% strength aqueous biomalt solution. The test plants were then placed in a dark climatized chamber at 22-24° C. and high atmospheric humidity. After 5 days, the extent of the fungal infection on the leaves could be determined visually in %. […]
# Puccinia recondita = assay: Curative activity against brown rust of wheat caused by Puccinia recondita; format: in vivo; settings: wheat seedlings sprayed 1 day after inoculation, rated after 7 days, untreated 90%; for Infection in % at 4 ppm using PUCCRT K1: Use Example 2
# Method: The active compounds were prepared as a stock solution with 25 mg of active compound which was made up to 10 ml with a mixture of acetone and/or DMSO and the emulsifier Uniperol® EL (wetting agent having emulsifying and dispersing action based on ethoxylated alkyl phenols) in a volume ratio solvent/emulsifier of 99 to 1. The solution was then made up to 100 ml with water. This stock solution was diluted to the active compound concentrations stated below using the solvent/emulsifier/water mixture described. Curative Activity Against Brown Rust of Wheat Caused by Puccinia Recondita Leaves of potted wheat seedlings of the cultivar “Kanzler” were inoculated with a spore suspension of brown rust (Puccinia recondita). The pots were then placed in a chamber with high atmospheric humidity (90 to 95%) and at 20-22° C. for 24 hours. During this time, the spores germinated and the germ tubes penetrated into the leaf tissue. The next day, the infected plants were sprayed to runoff point with an aqueous suspension having the concentration of active compounds stated below. The suspension or emulsion was prepared as described above. After the spray coating had dried on, the test plants were cultivated in a greenhouse at temperatures between 20 and 22° C. and at 65 to 70% relative atmospheric humidity for 7 days. The extent of the rust fungus development on the leaves was then determined. Curative Activity Against Brown Rust of Wheat Caused by Puccinia Recondita Leaves of potted wheat seedlings of the cultivar “Kanzler” were inoculated with a spore suspension of brown rust (Puccinia recondita). The pots were then placed in a chamber with high atmospheric humidity (90 to 95%) and at 20-22° C. for 24 hours During this time, the spores germinated and the germ tubes penetrated into the leaf tissue. The next day, the infected plants were sprayed to runoff point with an aqueous suspension having the concentration of active compounds stated below. The suspension or emulsion was prepared as described above. After the spray coating had dried on, the test plants were cultivated in a greenhouse at temperatures between 20 and 22° C. and at 65 to 70% relative atmospheric humidity for 7 days. The extent of the rust fungus development on the leaves was then determined. Curative Activity Against Brown Rust of Wheat Caused by Puccinia Recondita Leaves of potted wheat seedlings of the cultivar “Kanzler” were inoculated with a spore suspension of brown rust (Puccinia recondita). The pots were then placed in a chamber with high atmospheric humidity (90 to 95%) and at 20-22° C. for 24 hours. During this time, the spores germinated and the germ tubes penetrated into the leaf tissue. The next day, the infected plants were sprayed to runoff point with an aqueous suspension having the concentration of active compounds stated below. The suspension or emulsion was prepared as described above. After the spray coating had dried on, the test plants were cultivated in a greenhouse at temperatures between 20 and 22° C. and at 65 to 70% relative atmospheric humidity for 7 days. The extent of the rust fungus development on the leaves was then determined.
# [1] = Use Example 4, bell pepper seedlings sprayed 1 day before inoculation
# [2] = Use Example 1, bell pepper seedlings sprayed 1 day before inoculation
Structure (SMILES),Infection in % at 4 ppm using BOTRCI P1 (Botrytis cinerea; [1]) [%],Infection in % at 250 ppm using PUCCRT K1 (Puccinia recondita; Use Example 5) [%],Infection in % at 4 ppm using BOTRCI P1 (Botrytis cinerea; [2]) [%],Infection in % at 4 ppm using PUCCRT K1 (Puccinia recondita) [%],Infection in % at 250 ppm using PUCCRT K1 (Puccinia recondita; Use Example 3) [%]
Cc1cc(Cl)ccc1-c1ccccc1NC(=O)c1cn(C)nc1C(F)(F)F [67.8],0,0,,,
Cn1cc(C(=O)Nc2ccccc2-c2ccc(F)cc2)c(C(F)(F)F)n1 [Comp. 37of EP-A05 89 301],,,70,30,
COc1ccc(-c2ccccc2NC(=O)c2cn(C)nc2C(F)(F)F)cc1 [Comp. 38of EP-A05 89 301],,,,,60
Cc1ccccc1-c1ccccc1NC(=O)c1cn(C)nc1C(F)(F)F [Comp. 41of EP-A05 89 301],25,60,,,
Cn1cc(C(=O)Nc2ccccc2-c2ccc(F)c(F)c2)c(C(F)(F)F)n1 [Comp. 67.4],,,40,5,
COc1ccc(-c2ccccc2NC(=O)c2cn(C)nc2C(F)(F)F)c(F)c1 [Comp. 67.14],,,,,7
